Measurements taken from the NIST ThermoML archive (doi:10.1016/j.jct.2007.05.011).
Numbers after ± are expanded uncertainties. Values belong to the molecule of their own block, whether it stands above or below them.

Experiments:
[1] = 101 kPa, Liquid; for mass density: Vibrating tube method
[2] = xn = mol fraction of the nth substance listed; conditions: 101 kPa, Liquid, x1 = 1; for mass density: Vibrating tube method

Compound: NCCO.O=CO [2-hydroxyethylammonium formate]
speed of sound ([1]; 288.15 K): 1733.9 ± 9.9 m/s
mass density ([1]; 288.15 K): 1183.57 ± 31 kg/m3
speed of sound ([1]; 290.65 K): 1727.4 ± 9.9 m/s
mass density ([1]; 290.65 K): 1181.81 ± 31 kg/m3
speed of sound ([1]; 293.15 K): 1721.3 ± 9.8 m/s
mass density ([1]; 293.15 K): 1180.04 ± 31 kg/m3
speed of sound ([1]; 295.65 K): 1715.1 ± 9.8 m/s
mass density ([1]; 295.65 K): 1178.27 ± 31 kg/m3
speed of sound ([1]; 298.15 K): 1709 ± 9.8 m/s
mass density ([1]; 298.15 K): 1176.49 ± 31 kg/m3
speed of sound ([1]; 300.65 K): 1702.9 ± 9.8 m/s
mass density ([1]; 300.65 K): 1174.71 ± 31 kg/m3
speed of sound ([1]; 303.15 K): 1696.8 ± 9.8 m/s
mass density ([1]; 303.15 K): 1172.94 ± 31 kg/m3
speed of sound ([1]; 305.65 K): 1690.8 ± 9.8 m/s
mass density ([1]; 305.65 K): 1171.16 ± 31 kg/m3
speed of sound ([1]; 308.15 K): 1684.8 ± 9.7 m/s
mass density ([1]; 308.15 K): 1169.39 ± 31 kg/m3
speed of sound ([1]; 310.65 K): 1678.7 ± 9.7 m/s
mass density ([1]; 310.65 K): 1167.62 ± 31 kg/m3
speed of sound ([1]; 313.15 K): 1672.7 ± 9.7 m/s
mass density ([1]; 313.15 K): 1165.84 ± 31 kg/m3
speed of sound ([1]; 315.65 K): 1666.7 ± 9.7 m/s
mass density ([1]; 315.65 K): 1164.06 ± 31 kg/m3
speed of sound ([1]; 318.15 K): 1660.8 ± 9.6 m/s
mass density ([1]; 318.15 K): 1162.29 ± 31 kg/m3
speed of sound ([1]; 320.65 K): 1654.8 ± 9.6 m/s
mass density ([1]; 320.65 K): 1160.51 ± 31 kg/m3
speed of sound ([1]; 323.15 K): 1648.9 ± 9.6 m/s
mass density ([1]; 323.15 K): 1158.73 ± 31 kg/m3

Compound: CCO [ethanol] + NCCO.O=CO
mass density ([2]; 288.15 K): 794.444 ± 30 kg/m3
speed of sound ([2]; 288.15 K): 1178.2 ± 6.3 m/s
mass density ([2]; 290.65 K): 792.305 ± 30 kg/m3
speed of sound ([2]; 290.65 K): 1169.1 ± 6.3 m/s
mass density ([2]; 293.15 K): 790.158 ± 30 kg/m3
speed of sound ([2]; 293.15 K): 1160.3 ± 6.3 m/s
mass density ([2]; 295.65 K): 788.027 ± 30 kg/m3
speed of sound ([2]; 295.65 K): 1151.7 ± 6.2 m/s
mass density ([2]; 298.15 K): 785.89 ± 30 kg/m3
speed of sound ([2]; 298.15 K): 1143.1 ± 6.2 m/s
mass density ([2]; 300.65 K): 783.729 ± 30 kg/m3
speed of sound ([2]; 300.65 K): 1134.6 ± 6.2 m/s
mass density ([2]; 303.15 K): 781.591 ± 30 kg/m3
speed of sound ([2]; 303.15 K): 1126.2 ± 6.1 m/s
mass density ([2]; 305.65 K): 779.402 ± 30 kg/m3
speed of sound ([2]; 305.65 K): 1117.8 ± 6.1 m/s
mass density ([2]; 308.15 K): 777.238 ± 30 kg/m3
speed of sound ([2]; 308.15 K): 1109.4 ± 6.1 m/s
mass density ([2]; 310.65 K): 775.055 ± 30 kg/m3
speed of sound ([2]; 310.65 K): 1101 ± 6 m/s
mass density ([2]; 313.15 K): 772.846 ± 30 kg/m3
speed of sound ([2]; 313.15 K): 1092.7 ± 6 m/s
mass density ([2]; 315.65 K): 770.625 ± 30 kg/m3
speed of sound ([2]; 315.65 K): 1084.3 ± 6 m/s
mass density ([2]; 318.15 K): 768.482 ± 30 kg/m3
speed of sound ([2]; 318.15 K): 1075.9 ± 5.9 m/s
mass density ([2]; 320.65 K): 766.198 ± 30 kg/m3
speed of sound ([2]; 320.65 K): 1067.5 ± 5.9 m/s
mass density ([2]; 323.15 K): 764.019 ± 30 kg/m3
speed of sound ([2]; 323.15 K): 1058.8 ± 5.9 m/s

Compound: O [water] + NCCO.O=CO
mass density ([2]; 290.65 K): 998.68 ± 30 kg/m3
speed of sound ([2]; 290.65 K): 1474.7 ± 7.5 m/s
mass density ([2]; 295.65 K): 997.65 ± 30 kg/m3
speed of sound ([2]; 295.65 K): 1489.9 ± 7.6 m/s
mass density ([2]; 300.65 K): 996.37 ± 30 kg/m3
speed of sound ([2]; 300.65 K): 1503.4 ± 7.6 m/s
mass density ([2]; 305.65 K): 994.86 ± 30 kg/m3
speed of sound ([2]; 305.65 K): 1515.1 ± 7.7 m/s
mass density ([2]; 310.65 K): 993.15 ± 30 kg/m3
speed of sound ([2]; 310.65 K): 1525 ± 7.7 m/s
speed of sound ([2]; 313.15 K): 1529.3 ± 7.7 m/s
mass density ([2]; 315.65 K): 991.24 ± 30 kg/m3
speed of sound ([2]; 315.65 K): 1533.2 ± 7.7 m/s
speed of sound ([2]; 318.15 K): 1536.6 ± 7.8 m/s
mass density ([2]; 320.65 K): 989.15 ± 30 kg/m3
speed of sound ([2]; 320.65 K): 1539.6 ± 7.8 m/s
mass density ([2]; 323.15 K): 988.04 ± 30 kg/m3
speed of sound ([2]; 323.15 K): 1542.1 ± 7.8 m/s

Further lines, results first:

speed of sound ([1]; 288.15 K): 1178.2 ± 6.3 m/s
mass density ([1]; 288.15 K): 794.444 ± 30 kg/m3
speed of sound ([1]; 290.65 K): 1169.1 ± 6.3 m/s
mass density ([1]; 290.65 K): 792.305 ± 30 kg/m3
speed of sound ([1]; 293.15 K): 1160.3 ± 6.3 m/s
mass density ([1]; 293.15 K): 790.158 ± 30 kg/m3
speed of sound ([1]; 295.65 K): 1151.7 ± 6.2 m/s
mass density ([1]; 295.65 K): 788.027 ± 30 kg/m3
speed of sound ([1]; 298.15 K): 1143.1 ± 6.2 m/s
mass density ([1]; 298.15 K): 785.89 ± 30 kg/m3
speed of sound ([1]; 300.65 K): 1134.6 ± 6.2 m/s
mass density ([1]; 300.65 K): 783.729 ± 30 kg/m3
speed of sound ([1]; 303.15 K): 1126.2 ± 6.1 m/s
mass density ([1]; 303.15 K): 781.591 ± 30 kg/m3
speed of sound ([1]; 305.65 K): 1117.8 ± 6.1 m/s
mass density ([1]; 305.65 K): 779.402 ± 30 kg/m3
speed of sound ([1]; 308.15 K): 1109.4 ± 6.1 m/s
mass density ([1]; 308.15 K): 777.238 ± 30 kg/m3
speed of sound ([1]; 310.65 K): 1101 ± 6 m/s
mass density ([1]; 310.65 K): 775.055 ± 30 kg/m3
speed of sound ([1]; 313.15 K): 1092.7 ± 6 m/s
mass density ([1]; 313.15 K): 772.846 ± 30 kg/m3
speed of sound ([1]; 315.65 K): 1084.3 ± 6 m/s
mass density ([1]; 315.65 K): 770.625 ± 30 kg/m3
speed of sound ([1]; 318.15 K): 1075.9 ± 5.9 m/s
mass density ([1]; 318.15 K): 768.482 ± 30 kg/m3
speed of sound ([1]; 320.65 K): 1067.5 ± 5.9 m/s
mass density ([1]; 320.65 K): 766.198 ± 30 kg/m3
speed of sound ([1]; 323.15 K): 1058.8 ± 5.9 m/s
mass density ([1]; 323.15 K): 764.019 ± 30 kg/m3
Compound: CCO [ethanol]

speed of sound ([1]; 288.15 K): 1134.5 ± 6.2 m/s
mass density ([1]; 288.15 K): 795.775 ± 30 kg/m3
speed of sound ([1]; 290.65 K): 1126.2 ± 6.1 m/s
mass density ([1]; 290.65 K): 793.495 ± 30 kg/m3
speed of sound ([1]; 293.15 K): 1118 ± 6.1 m/s
mass density ([1]; 293.15 K): 791.149 ± 30 kg/m3
speed of sound ([1]; 295.65 K): 1109.8 ± 6.1 m/s
mass density ([1]; 295.65 K): 788.811 ± 30 kg/m3
speed of sound ([1]; 298.15 K): 1101.6 ± 6 m/s
mass density ([1]; 298.15 K): 786.463 ± 30 kg/m3
speed of sound ([1]; 300.65 K): 1093.4 ± 6 m/s
mass density ([1]; 300.65 K): 784.102 ± 30 kg/m3
speed of sound ([1]; 303.15 K): 1085.5 ± 6 m/s
mass density ([1]; 303.15 K): 781.764 ± 30 kg/m3
speed of sound ([1]; 305.65 K): 1077.3 ± 5.9 m/s
mass density ([1]; 305.65 K): 779.385 ± 30 kg/m3
speed of sound ([1]; 308.15 K): 1069.2 ± 5.9 m/s
mass density ([1]; 308.15 K): 777.026 ± 30 kg/m3
speed of sound ([1]; 310.65 K): 1061.1 ± 5.9 m/s
mass density ([1]; 310.65 K): 774.659 ± 30 kg/m3
speed of sound ([1]; 313.15 K): 1052.9 ± 5.8 m/s
mass density ([1]; 313.15 K): 772.261 ± 30 kg/m3
speed of sound ([1]; 315.65 K): 1044.9 ± 5.8 m/s
mass density ([1]; 315.65 K): 769.86 ± 30 kg/m3
speed of sound ([1]; 318.15 K): 1036.7 ± 5.8 m/s
mass density ([1]; 318.15 K): 767.541 ± 30 kg/m3
speed of sound ([1]; 320.65 K): 1028.6 ± 5.8 m/s
mass density ([1]; 320.65 K): 765.074 ± 30 kg/m3
speed of sound ([1]; 323.15 K): 1020.5 ± 5.7 m/s
mass density ([1]; 323.15 K): 762.738 ± 30 kg/m3
Compound: CO [methanol]

mass density ([2]; 288.15 K): 795.775 ± 30 kg/m3
speed of sound ([2]; 288.15 K): 1134.5 ± 6.2 m/s
mass density ([2]; 290.65 K): 793.495 ± 30 kg/m3
speed of sound ([2]; 290.65 K): 1126.2 ± 6.1 m/s
mass density ([2]; 293.15 K): 791.149 ± 30 kg/m3
speed of sound ([2]; 293.15 K): 1118 ± 6.1 m/s
mass density ([2]; 295.65 K): 788.811 ± 30 kg/m3
speed of sound ([2]; 295.65 K): 1109.8 ± 6.1 m/s
mass density ([2]; 298.15 K): 786.463 ± 30 kg/m3
speed of sound ([2]; 298.15 K): 1101.6 ± 6 m/s
mass density ([2]; 300.65 K): 784.102 ± 30 kg/m3
speed of sound ([2]; 300.65 K): 1093.4 ± 6 m/s
mass density ([2]; 303.15 K): 781.764 ± 30 kg/m3
speed of sound ([2]; 303.15 K): 1085.5 ± 6 m/s
mass density ([2]; 305.65 K): 779.385 ± 30 kg/m3
speed of sound ([2]; 305.65 K): 1077.3 ± 5.9 m/s
mass density ([2]; 308.15 K): 777.026 ± 30 kg/m3
speed of sound ([2]; 308.15 K): 1069.2 ± 5.9 m/s
mass density ([2]; 310.65 K): 774.659 ± 30 kg/m3
speed of sound ([2]; 310.65 K): 1061.1 ± 5.9 m/s
mass density ([2]; 313.15 K): 772.261 ± 30 kg/m3
speed of sound ([2]; 313.15 K): 1052.9 ± 5.8 m/s
mass density ([2]; 315.65 K): 769.86 ± 30 kg/m3
speed of sound ([2]; 315.65 K): 1044.9 ± 5.8 m/s
mass density ([2]; 318.15 K): 767.541 ± 30 kg/m3
speed of sound ([2]; 318.15 K): 1036.7 ± 5.8 m/s
mass density ([2]; 320.65 K): 765.074 ± 30 kg/m3
speed of sound ([2]; 320.65 K): 1028.6 ± 5.8 m/s
mass density ([2]; 323.15 K): 762.738 ± 30 kg/m3
speed of sound ([2]; 323.15 K): 1020.5 ± 5.7 m/s
Compound: CO [methanol] + NCCO.O=CO
